Values quoted from earlier work as cited in publication PMC6784055 (Toxins, 2019).

Tested on: rat brain sodium channel
Conditions: relative to PbTx1

For C[C@@H]1C[C@@H]2O[C@@H]3[C@@H](C)[C@H](O)[C@@H]4O[C@]5(C[C@H](O)CO5)[C@@H](C)[C@H](C)[C@H]4O[C@H]3C[C@H]2O[C@H]2C[C@H]3O[C@H]4C/C=C\C[C@H]5O[C@H]6C=C[C@H]7O[C@H]8[C@H](O)[C@H]9O[C@@H](/C=C/[C@H](O)CO)C=CC[C@@H]9O[C@@H]8C[C@@H]7O[C@@H]6C=C[C@@H]5O[C@@H]4C[C@@H](O)[C@]3(C)O[C@@H]2C1 [ciguatoxin-1B], which “binding affinity stronger than that of PbTx1” value is on record?
The value was 50 fold.
